From PubChem BioAssay AID1963858 (Molecular Pharmacology Branch, DTP, NCI, 2024)

Tested on: HOP-62 multicell spheroids with HUVEC/MSC, viability
Assay: Anticancer human tumor HOP-62 cell line growth inhibition [KRAS2];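 also: viability read after a week of compound exposure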;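 as to viability, T/C: 100% = DMSO vehicle-treated spheroids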
Details: for IC50: curve of first compound; for viability, T/C: stronger effect = lower value
Outline: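 Combination screen of spheroid viability in tumor-cell co-cultures with endothelial (HUVEC) and mesenchymal stem cell stroma. Each agent was tested in half-log dilutions, topping at clinical Cmax or at 10 microM without a known Cmax.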

[1] = second compound 0.1 µM, first compound 0.01 µM
[2] = second compound 0.1 µM, first compound 0.0316 µM
[3] = second compound 0.1 µM, first compound 0.1 µM
[4] = second compound 0.316 µM, first compound 0.01 µM
[5] = second compound 0.316 µM, first compound 0.0316 µM
[6] = second compound 0.316 µM, first compound 0.1 µM
[7] = second compound 1 µM, first compound 0.01 µM
[8] = second compound 1 µM, first compound 0.0316 µM
[9] = second compound 1 µM, first compound 0.1 µM
[10] = second compound 3.16 µM, first compound 0.01 µM
[11] = second compound 3.16 µM, first compound 0.0316 µM
[12] = second compound 3.16 µM, first compound 0.1 µM
[13] = second compound 10 µM, first compound 0.01 µM
[14] = second compound 10 µM, first compound 0.0316 µM
[15] = second compound 10 µM, first compound 0.1 µM
[16] = second compound 0.1 µM, first compound 0.316 µM
[17] = second compound 0.1 µM, first compound 1 µM
[18] = second compound 0.1 µM, first compound 3.16 µM
[19] = second compound 0.316 µM, first compound 0.316 µM
[20] = second compound 0.316 µM, first compound 1 µM
[21] = second compound 0.316 µM, first compound 3.16 µM
[22] = second compound 1 µM, first compound 0.316 µM
[23] = second compound 1 µM, first compound 1 µM
[24] = second compound 1 µM, first compound 3.16 µM
[25] = second compound 3.16 µM, first compound 0.316 µM
[26] = second compound 3.16 µM, first compound 1 µM
[27] = second compound 3.16 µM, first compound 3.16 µM
[28] = second compound 10 µM, first compound 0.316 µM
[29] = second compound 10 µM, first compound 1 µM
[30] = second compound 10 µM, first compound 3.16 µM

Row | SMILES | IC50 (second compound 0.1 µM) [nM] | IC50 (second compound 0.316 µM) [nM] | IC50 (second compound 1 µM) [nM] | IC50 (second compound 3.16 µM) [nM] | IC50 (second compound 10 µM) [nM] | viability, T/C [1] [%] | viability, T/C [2] [%] | viability, T/C [3] [%] | viability, T/C [4] [%] | viability, T/C [5] [%] | viability, T/C [6] [%] | viability, T/C [7] [%] | viability, T/C [8] [%] | viability, T/C [9] [%] | viability, T/C [10] [%] | viability, T/C [11] [%] | viability, T/C [12] [%] | viability, T/C [13] [%] | viability, T/C [14] [%] | viability, T/C [15] [%] | further results
1 | Cn1ncnc1[C@H]1c2n[nH]c(=O)c3cc(F)cc(c23)N[C@@H]1c1ccc(F)cc1 + CC1OCC2(CCN(c3cnc(Sc4ccnc(N)c4Cl)c(N)n3)CC2)C1N | > 100 | > 100 | 1.39 | < 0.316 | < 0.316 | 87.1 | 80.2 | 73 | 69.3 | 72.5 | 52.6 | 31.4 | 32.7 | 37.9 | 23.7 | 17.5 | 22.5 | 27.5 | 24.1 | 21.1 | viability, T/C (second compound 0.1 µM, first compound 0.000316 µM): 88.7%; viability, T/C (second compound 0.1 µM, first compound 0.001 µM): 97.9%; viability, T/C (second compound 0.1 µM, first compound 0.00316 µM): 94.1%; viability, T/C (second compound 0.316 µM, first compound 0.000316 µM): 86.5%; viability, T/C (second compound 0.316 µM, first compound 0.001 µM): 66.8%; viability, T/C (second compound 0.316 µM, first compound 0.00316 µM): 62.7%; viability, T/C (second compound 1 µM, first compound 0.000316 µM): 65.2%; viability, T/C (second compound 1 µM, first compound 0.001 µM): 56.9%; viability, T/C (second compound 1 µM, first compound 0.00316 µM): 29.8%; viability, T/C (second compound 3.16 µM, first compound 0.000316 µM): 40.6%; viability, T/C (second compound 3.16 µM, first compound 0.001 µM): 31.7%; viability, T/C (second compound 3.16 µM, first compound 0.00316 µM): 37%; viability, T/C (second compound 10 µM, first compound 0.000316 µM): 36.9%; viability, T/C (second compound 10 µM, first compound 0.001 µM): 30.3%; viability, T/C (second compound 10 µM, first compound 0.00316 µM): 31%
2 | CC(=O)OC12COC1CC(O)C1(C)C(=O)C(O)C3=C(C)C(OC(=O)C(O)C(NC(=O)OC(C)(C)C)c4ccccc4)CC(O)(C(OC(=O)c4ccccc4)C21)C3(C)C (stereo not given) + COc1cc2nc(C)nc(NC(C)c3cc(N)cc(C(F)(F)F)c3)c2cc1OC1CCOC1 | < 10 | < 10 | < 10 | < 10 | < 10 | 40 | 32.3 | 36.2 | 38.5 | 35.6 | 34.4 | 29.7 | 35.1 | 34.2 | 29.7 | 27.3 | 27.2 | 34.2 | 31.1 | 51.7 | viability, T/C [16]: 32.7%; viability, T/C [17]: 37.5%; viability, T/C [18]: 53.4%; viability, T/C [19]: 27.5%; viability, T/C [20]: 40.9%; viability, T/C [21]: 41%; viability, T/C [22]: 39.5%; viability, T/C [23]: 39.6%; viability, T/C [24]: 38.7%; viability, T/C [25]: 37%; viability, T/C [26]: 35.9%; viability, T/C [27]: 39.5%; viability, T/C [28]: 30.7%; viability, T/C [29]: 33.7%; viability, T/C [30]: 40.6%
3 | CC1COCCN1c1cc(-c2ccnn2C)c2ccnc(-c3ccn[nH]3)c2n1 (stereo not given) + C=CC(=O)N1CCN(c2nc(=O)n(-c3c(C)ccnc3C(C)C)c3nc(-c4c(O)cccc4F)c(F)cc23)C(C)C1 | 27.2 | 33.2 | 23.3 | 12 | < 10 | 61.3 | 48.3 | 15.2 | 66.7 | 51.5 | 19.5 | 65.9 | 44.2 | 19.3 | 53.1 | 33.5 | 15.5 | 33 | 23.9 | 18.1 | viability, T/C [16]: 11.7%; viability, T/C [17]: 11.4%; viability, T/C [18]: 8.87%; viability, T/C [19]: 12.7%; viability, T/C [20]: 10.7%; viability, T/C [21]: 9.1%; viability, T/C [22]: 11.1%; viability, T/C [23]: 10.5%; viability, T/C [24]: 10.7%; viability, T/C [25]: 11.7%; viability, T/C [26]: 13.3%; viability, T/C [27]: 12.1%; viability, T/C [28]: 15.5%; viability, T/C [29]: 13.8%; viability, T/C [30]: 11.3%
